Source: paper PMC5983823, “Screening of Natural Product Derivatives Identifies Two Structurally Related Flavonoids as Potent Quorum Sensing Inhibitors against Gram-Negative Bacteria” (International Journal of Molecular Sciences, 2018)
Read-outs that look alike come from different tables or passages of the source.

Legend:
[1] = system: C. violaceum ATCC 31532; experiment: Violacein extraction assay (QS-mediated violacein production); format: cell-based, Chromobacterium violaceum; conditions: for inhibition at 400 µM: ATCC31532, 24 h, read-out: Inhibition-% of violacein production
Experimental: (§1) The initial screening of compound library was conducted using two strains of C. violaceum as model bacterium, and two assays (violacein extraction and resazurin staining) in parallel as recently optimized in [26]. For the screening assays, overnight cultures of C. violaceum were diluted in LB broth supplemented with yeast extract (LBY) (0.1% w/v, Sigma Aldrich, St. Louis, MO, USA). Culture of C. violaceum CV026 was further supplemented with 0.5 µM N-(β-ketocaproyl)-L-Homoserine lactone (3-O-C6-(L)-HSL, Cayman chemicals, Ann Arbor, MI, USA) to induce the violacein production. Bacteria (10^6 CFU/mL) was exposed to compounds (400 µM) in a total volume of 200 µL in 96-microtiter well plates (Nunc, Roskilde, Denmark), and incubated at 27 °C, with shaking at 200 rpm for 24 h. DMSO was added in untreated control wells and bacteria-free wells with only LBY were included controls. Additionally, autoinducer-free wells containing only bacteria were included in C. violaceum CV026 plates. Plates were prepared in duplicates. Quercetin dihydrate (Carl Roth GmbH, Karlsruhe, Germany) at 400 µM was used as positive control in violacein extraction assay, and azithromycin (Cayman chemicals, Ann Arbor, MI, USA) at 10 µM in viability assay. Both control compounds were prepared in DMSO. DMSO concentration was 2.5% throughout the experiments.
(§2) After incubation period of 24 h, plates were centrifuged (Allegra™ X-12R Benchtop centrifuge, Beckman Coulter Inc., Fullerton, CA, USA) at 3000 rpm for 10 min to precipitate the violacein. Supernatants were discarded from the wells by pipetting, and pellets were re-suspended in 200 μL of 96% ethanol by scraping and mixing followed by centrifugation (3000 rpm, 10 min). Thereafter, 100 μL of supernatants were transferred to sterile 96-microtiter well plates, and violacein was quantified by reading the optical density at 595 nm using Varioskan Flash. Inhibition of violacein production was expressed as inhibition percentages of the untreated biofilms (Equation (1)):Inhibition-% = [(untreated control OD595 − sample OD595)/(untreated control OD595 − media control OD595)] × 100%(1) in which untreated control = C. violaceum + DMSO, media control = LBY, and sample = C. violaceum treated with a compound. Later on, violacein extraction assay was also utilized for the determination of half inhibitory concentrations of the compounds.

[2] = system: C. violaceum CV026; experiment: Violacein extraction assay (QS-mediated violacein production), mutant strain with exogenous autoinducer; format: cell-based, Chromobacterium violaceum; conditions: for inhibition at 400 µM: Chromobacterium violaceum, CV026, 24 h, read-out: Inhibition-% of violacein production
Experimental: as §1, §2

[3] = system: C. violaceum ATCC 31532; experiment: Violacein extraction assay (QS-mediated violacein production); format: cell-based; conditions: Chromobacterium violaceum
[4] = system: cancer cell lines; design: method as in ref 56 = [56]; 56. National Center for Biotechnology Information PubChem BioAssay Database Available online: https://pubchem.ncbi.nlm.nih.gov/bioassay/924 (accessed on 28 March 2018); conditions: PubChem Bioassay database ref 56; cited from earlier work
[5] = system: human lung (HL) epithelial cells; experiment: Cytotoxicity testing (CellTiter Glo); format: cell-based; conditions: 200 µM, 24 h exposure, positive control
Experimental: (§3) Human lung (HL) epithelial cells were grown in RPMI 1640 (Biowhittaker, Lonza, Viewers, Bornem, Belgium) supplemented with 10% inactivated fetal bovine serum (FBS), 2 mM L-glutamine and gentamycin 20 µg/mL, and mouse monocyte macrophage RAW 264.7 cells in DMEM medium supplemented with 10% FBS and 20 µg/mL gentamycin. Cells (3 × 10^5 cells/mL) were seeded into 96-microtiter well plates (Cellstar TC, Greiner Bio-One GmbH, Frickenhausen, Germany), 200 µL per well, and incubated at 37 °C in 5% CO2 24 h before exposure to the compounds. After the incubation, culture medium was discarded, the wells were washed with PBS, and the compound dilutions prepared in culture media were added as triplicates to a final volume of 200 µL. Usnic acid (200 µM, Sigma Aldrich, St. Louis, MO, USA) was included as positive control and DMSO (1%) as solvent control. Plates were incubated for additional 24 h. At the end of 24 h, media was removed, wells were washed twice with PBS and 100 µL of PBS was added. CellTiter Glo® reagent (Promega, Madison, WI, USA) was prepared according to manufacturer’s instructions, and 100 µL was added to the wells. The plates were shaken for two minutes and equilibrated at room temperature for 10 min prior to measuring the luminescence using Varioskan LUX multimode plate reader (Thermo Scientific, Vantaa, Finland). Inhibition of cell viability was calculated in relation to the untreated cells.

[6] = system: mouse monocyte macrophage (RAW 264.7) cells; experiment: Cytotoxicity testing (CellTiter Glo); format: cell-based; conditions: 200 µM, 24 h exposure, positive control
Experimental: as §3

[7] = Chromobacterium violaceum, primary screening, 400 µM, 24 h, C. violaceum ATCC 31532
[8] = ATCC31532, 40 µM, C. violaceum ATCC 31532, mean ± SD of three independent tests, read-out: Inhibition-% of violacein production
[9] = ATCC31532, read-out: Inhibition-% of violacein production

For `CC(C)COc1ccc(C(=O)N/C(=C\c2ccccc2)C(=O)NCCNC(=O)/C(=C\c2ccccc2)NC(=O)c2ccc(OCC(C)C)cc2)cc1` [Compound 2, (2E)-N-[2-((2Z)-2-{[4-(2-methylpropoxy)phenyl]carbonylamino}-3-phenylprop-2-enoylamino)ethyl]-2-{[4-(2-methylpropoxy)phenyl]carbonylamino}-3-phenylprop-2-en amide], the inhibition at 400 µM [1, 7] was 19%.

`O=C(NCCCCCCNC(=O)/C(=C\c1ccccc1)NC(=O)c1ccccc1)/C(=C/c1ccccc1)NC(=O)c1ccccc1` [Compound 3, (2E)-N-{6-[(2Z)-3-phenyl-2-(phenylcarbonylamino)prop-2-enoylamino]hexyl}-3-phenyl-2-(phenylcarbonylamino)prop-2-enamide] gave an inhibition at 400 µM [1, 7] of 41% and an inhibition at 400 µM [2] of 41.3%.

With `Nc1ccn(C2OC(CO)C3OP(=O)(O)OC32)c(=O)n1` (stereo not drawn) [Compound 144, 8-(4-amino-2-oxohydropyrimidinyl)-3-hydroxy-6-(hydroxymethyl)-2,4,7-trioxa-3-phosphabicyclo[3.3.0]octan-3-one] the inhibition at 400 µM [1, 7] was 94.7%, the inhibition at 400 µM [2] was 97.2% and the inhibition at 40 µM [3, 8] was 0%.

Compound `C=C(CBr)C1Cc2c(ccc3c2OC2COc4cc(OC)c(OC)cc4C2C3=O)O1` (stereo not drawn) [Compound 341, 2-[1-(bromomethyl)vinyl]-8,9-dimethoxy-1,2-dihydrochromano[3,4-b]furano[2,3-h]chroman-6-one] has an inhibition at 400 µM ([1]; Chromobacterium violaceum) of 93.4%, an inhibition at 400 µM [2] of 95.2% and an inhibition at 40 µM [3, 9] of 26.9 ± 7.7%.

For `O=c1c(O)c(-c2cccnc2)oc2ccc(Cl)cc12` [Compound 575, 6-chloro-3-hydroxy-2-(3-pyridyl)chromen-4-one], the inhibition at 400 µM [1, 7] was 94.1%, the inhibition at 400 µM [2] was 94.3% and the inhibition at 40 µM [3, 8] was 60.9 ± 4.1%. For the same compound, the Anti-cancer activity [4] was “not active”.

For `COc1ccc2c(c1)c(CC(=O)NCCCN1CCCCC1)c(C)n2C(=O)c1ccc(Cl)cc1` [Compound 712, 2-{1-[(4-chlorophenyl)carbonyl]-5-methoxy-2-methylindol-3-yl}-N-(3-piperidylpropyl)acetamide], the inhibition at 400 µM [2] was 94.3%.

With `C1COCCN1.COC(=O)C1=C(C)NC(S)=C(C#N)C1c1cc(OC)c(OC)c(OC)c1` (stereo not drawn) [Compound 1016, methyl 5-cyano-2-methyl-6-sulfanyl-4-(3,4,5-trimethoxyphenyl)-1,4-dihydropyridine-3-carboxylate, morpholine] the “Inhibition-% of violacein production” value ([1]; primary screening, 400 µM, 24 h, C. violaceum ATCC 31532) was 34.1% and the “Inhibition-% of violacein production” value ([2]; primary screening, 400 µM, 24 h, C. violaceum CV026) was 97.5%.

Work on `Cc1cc(C(=O)NC(Cc2ccccc2)C(=O)O)c(C)o1` (stereo not drawn) [Compound 1214, 2-[(2,5-dimethyl(3-furyl))carbonylamino]-3-phenylpropanoic acid] yielded an inhibition at 400 µM [2] of 103%.

Compound `Cc1ccc2c(C)c(-c3ccc(Cl)cc3)c(=O)oc2c1` [Compound 1352] has an inhibition at 400 µM [1, 7] of 18.8% and an inhibition at 400 µM [2] of 99.6%.

`CCN(CC)C(=O)c1cc(=O)n(CC(=O)Nc2c(C)cc(C)cc2C)c2ccccc12` [Compound 1406, 2-[4-(N,N-diethylcarbamoyl)-2-oxohydroquinolyl]-N-(2,4,6-trimethylphenyl)acetamide] gave an inhibition at 400 µM [1, 7] of 40% and an inhibition at 400 µM [2] of 93.3%.

Work on `CCn1cnc2cc(NC(=O)c3cc(OC)c(OC)c(OC)c3)ccc2c1=O` [Compound 1508, N-(3-ethyl-4-oxo(3-hydroquinazolin-7-yl))(3,4,5-trimethoxyphenyl)carboxamide] yielded an inhibition at 400 µM [2] of 93.4%.

For `COc1cc([C@H]2OC[C@@H]3C(c4ccc(OC5OC(COC6OC(C)C(O)C(O)C6O)C(O)C(O)C5O)c(OC)c4)OC[C@H]23)ccc1O` (stereo partly drawn) [Compound 1698, 2-[(6-{4-[(6S,1R,5R)-6-(4-hydroxy-3-methoxyphenyl)-3,7-dioxabicyclo[3.3.0]oct-2-yl]-2-methoxyphenoxy}-3,4,5-trihydroxy(2H-3,4,5,6-tetrahydropyran-2-yl))methoxy]-6-methyl-2H-3,4,5,6-tetrahydropyran-3,4,5-triol], the inhibition at 400 µM [1, 7] was 91.3%, the inhibition at 400 µM [2] was 96.1% and the inhibition at 40 µM [3, 8] was 2.6 ± 4.6%.

`CCOc1ccc2oc(=O)cc(CN3CCNCC3)c2c1` [Compound 1852, 6-ethoxy-4-(piperazinylmethyl)chromen-2-one] showed an inhibition at 400 µM [1, 7] of 29.7% and an inhibition at 400 µM [2] of 95.2%.

In the case of `O=C(CSc1nc2c(=O)[nH]cnc2n1CC1CCCO1)Nc1ccc(F)c(Cl)c1` (stereo not drawn) [Compound 1905, N-(3-chloro-4-fluorophenyl)-2-[6-oxo-9-(oxolan-2-ylmethyl)hydropurin-8-ylthio] acetamide], the inhibition at 400 µM [1, 7] is reported as 4.7% and the inhibition at 400 µM [2] is reported as 107%.

Compound `Cc1sc(N)nc1-c1c[nH]c2ccccc12` [Compound 2307, 4-indol-3-yl-5-methyl-1,3-thiazole-2-ylamine] has an inhibition at 400 µM [1, 7] of 98.8%, an inhibition at 400 µM [2] of 98.6% and an inhibition at 40 µM [3, 8] of 76.1 ± 3.3%.

For `COc1ccc(/C=C/C(=O)c2ccc(O)cc2C)cc1` [Compound 2372, (2E)-1-(4-hydroxy-2-methylphenyl)-3-(4-methoxyphenyl)prop-2-en-1-one], the inhibition at 400 µM [1, 7] was 18.3% and the inhibition at 400 µM [2] was 91.1%.

In the case of `NC(=O)CC1CCCCN1` (stereo not drawn) [Compound 2584, 2-(2-piperidyl)acetamide], the inhibition at 400 µM [1, 7] is reported as 20.5% and the inhibition at 400 µM [2] is reported as 106%.

In the case of `CCOc1ccc(C2NCCc3c2[nH]c2ccccc32)cc1` (stereo not drawn) [Compound 2666, 4-ethoxy-1-(1,2,3,4-tetrahydrobeta-carbolinyl)benzene], the inhibition at 400 µM [2] is reported as 90.8%.

For `O=c1cc(C(Cl)(Cl)Cl)oc2ccccc12` [Compound 2712, 2-(trichloromethyl)chromen-4-one], the inhibition at 400 µM [2] was 106%.

`COc1ccccc1-c1c(C(F)(F)F)oc2cc(OC(=O)c3ccccc3F)ccc2c1=O` [Compound 2909, 3-(2-methoxyphenyl)-4-oxo-2-(trifluoromethyl)chromen-7-yl 2-fluorobenzoate] showed an inhibition at 400 µM [1, 7] of 12.1% and an inhibition at 400 µM [2] of 99.9%.

`O=C(CCc1cccc(F)c1)NC(CO)C(O)c1ccccc1` (stereo not drawn) [Compound 2916, 3-(3-fluorophenyl)-N-[2-hydroxy-1-(hydroxymethyl)-2-phenylethyl]propanamide] gave an inhibition at 400 µM [1, 7] of 19.7% and an inhibition at 400 µM [2] of 98.3%.

`O=c1c(O)c(-c2ccc(O)c(O)c2)oc2cc(O)cc(O)c12` [Que, quercetin, reference compound] showed an inhibition at 400 µM ([1]; Chromobacterium violaceum) of 99.7%, an IC50 ([1]; Chromobacterium violaceum, ATCC31532, read-out: IC50 of violacein production) of 3.1 µM and an inhibition at 400 µM [2] of 98.9%. The inhibition at 40 µM [3, 9] was 91.8 ± 2.3%.

With `CC(=O)c1c(O)c(C)c(O)c2c1OC1=CC(=O)C(C(C)=O)C(=O)C12C` (stereo not drawn) [Usnic acid, reference compound] the “Inhibition-% of cell viability” value [5] was 90.0 ± 4.7% and the “Inhibition-% of cell viability” value [6] was 98.5 ± 0.6%.
